# From US7524646B2 (priority 2001, dated 2009)
# Key:
# Type in all cases: cell-based, E. coli
# [1] = tested on: strain β5498 (valS:T222P allele); assay: Growth of valine auxotroph with limiting valine and Abu, valS:T222P; conditions: Abu 0.2 mM; limiting valine 0.02 mM; OD 600 nm, 24 h, 30° C.
# Experimental: (§1) FIG. 3. A graph showing the results of growth of the valine auxotroph CU505 in the presence of a limiting supply of valine and increasing concentrations of Abu. Overnight cultures of Δilv auxotrophs containing the WT valS (É) or the mutant valS:T222P allele (J) and grown in MS glucose medium with limiting valine (0.04 mM Ile-Val. 0.3 mM Ile-Leu) were diluted 1/1, the Val concentration was adjusted to 0.02 mM and the biomass was determined by measuring the optical density at 600 nm after 24 h of growth at 30° C.
# (§2) Abu misincorporation. The valine auxotroph CU505 (33) was grown in the presence of a limiting supply of valine and increasing concentrations of Abu (FIG. 3). […] In contrast, when the valST222P allele was introduced into the chromosome (strain β5498), the yield of cells was diminished in the absence of Abu but increased up to 30% when Abu (0.2 mM) was added.
# [2] = tested on: Δilv strain CU505 (wild-type valS); assay: Amino acid composition of total protein after growth with Abu, wild-type valS; conditions: WT + Abu (0.2 mM); 24 hours; relative to WT control that lacked Abu
# Experimental: (§3) We anticipated that ValRS mutants that misincorporated Cys would also misincorporate Abu. […] Whole cell protein was isolated from strain CU505 grown in the presence of Abu (0.2 mM), in the presence or absence of the valS:T222P allele in the host cell. […] Finally, the valine-rich yeast protein AlaXp (swissprot:P53960) was overexpressed and purified from strains containing the valS:T222P allele grown in the presence of Abu. The protein samples were digested by trypsin and analyzed by mass spectrometry. […] For a given peptide the degree of misincorporation ranged between 9.5% and 18% per Val codon. Sequencing of several Abu-containing peptides confirmed that Abu was specifically misincorporated into positions designated by Val codons.
# (§4) Table 2. Incorporation of Abu into cells bearing wild-type and T222P mutant alleles of valS. Cultures of the Δilv strain CU505 (19) and the isogenic strain β5498 carrying the valS:T222P allele were grown overnight in minimal medium (27) with Ile-Leu (0.3 mM) and limiting valine (0.04 mM Ile-Val), diluted (1/2), and adjusted with Ile-Val (0.02 mM) with or without Abu (0.2 mM). After 24 hours of growth, total protein was extracted as follows. Cells were first harvested by centrifugation and washed in cold 10% trichloroacetic acid (TCA, 1/2 of the culture volume). Cells were then re-centrifuged at 4000×g for 10 min, resuspended in cold 10% TCA (1/10 of the culture volume) and centrifuged again. The washed cells were resuspended in […], heated at 95° C. for 30 minutes and centrifuged (4000×g, 10 min). The precipitate was washed three times with cold acetone and dissolved in 50 mM NH4HCO3. Proteins were hydrolyzed in 6 N HCl-0.2% phenol at 110C. for 20 h in sealed tubes. Norleucine was added as an internal standard. Aliquots of the hydrolysates were analyzed on a Beckman 6300 Amino Acid Analyzer. Amino acids were quantified by appropriate standards and values are presented relative the wild-type (WT) control that lacked Abu.
# [3] = tested on: strain β5498 carrying the valS:T222P allele; assay: Amino acid composition of total protein after growth with Abu, valS:T222P; conditions: for valine in cellular protein replaced by Abu: whole cell protein, strain harboring the mutant allele, Abu 0.2 mM
# Experimental: as §3, §4
# [4] = tested on: strain β5456 (valS:T222P); assay: Growth on Abu gradient plates, valS:T222P strain; conditions: gradient plate, 50 μl 0.1 M, 2 days at 37° C.
# Experimental: FIG. 1C: Photographs showing the results of growth of a strain carrying the valS:T222P allele in the presence of L-threonine or Abu. Minimal medium plates supplemented with thymidine (0.3 mM) were pretreated with amino acid solutions by streaking either with Thr (50 μl (0.2 M)) or Abu (50 μl (0.1 M)) vertically along the diameter of the plate to create an amino acid gradient. Mutant (β5456) and wild-type (β5419 (thyA::erm+ ΔnrdD::kan+ pTS13 (bla+ thyA: 146GUA)) strains were then streaked horizontally across the plates and incubated for 2 days at 37° C.
# as §3
# [5] = tested on: valine auxotroph CU505; assay: Growth of valine auxotroph with limiting valine and increasing Abu, wild-type valS; conditions: up to 1 mM Abu; OD 600 nm, 24 h, 30° C.
# Experimental: as §1, §2
# [6] = T222P + Abu (0.2 mM), 24 hours, relative to WT control that lacked Abu
structure (smiles),measurement,setting,value
"CCC(N)C(=O)O (stereo not drawn) [Abu, α-aminobutyric acid]",increase of yield of cells,[1],up to 30%
same,Abu incorporated into total protein,[2],0.0
same,Ala incorporated into total protein,[2],1.0
same,Ile incorporated into total protein,[2],1.0
same,Val + Abu incorporated into total protein,[2],1.0
same,Val incorporated into total protein,[2],1.0
same,Abu incorporated into total protein,[3]; [6],0.24
same,Ala incorporated into total protein,[3]; [6],0.92
same,Ile incorporated into total protein,[3]; [6],1.0
same,Val + Abu incorporated into total protein,[3]; [6],0.97
same,Val incorporated into total protein,[3]; [6],0.73
same,valine in cellular protein replaced by Abu,[3],24%
same,valine in cellular protein replaced by Abu,[3]; listed as aminobutyrate,Over 20%
same,sensitivity of growth to Abu,[4],sensitive
same,biomass of cells relative to the valine concentration,[5],did not change
